Results on eight molecules are retold here after publication PMC8148468, “Shikimic acid protects skin cells from UV-induced senescence through activation of the NAD+-dependent deacetylase SIRT1” (Aging (Albany NY), 2021).

Structures are written as SMILES.

For the first data set, the system named is H3K9ac (the target of SIRT1, SIRT2 and SIRT6). The data set can be described thus: Sirtuin activity assay in HDF: H3K9ac levels (Western blot). Further: key: ↑: increase; ↓: decrease; hyphens that indicate no effect (-). The following applies: HDF treated 24h, Figure 1B. In kind it is cell-based, human. As for the experimental part: (§1) Figure 1 (A) Schematic representation of the compound testing for sirtuin activity evaluation in HDF. Cells were treated with or without the compounds for 24h and harvested for analysis. […] (C) Western Blot analysis and (D) quantification of H4K16ac and H3K9ac levels in cells treated with Resveratrol or Shikimic acid at the indicated concentrations. H4K16 and H3K9 levels were normalized to H4 and H3 levels respectively. Student T-test, *p<0.05, **p<0.01, ***p<0.001.
(§2) HDFs were plated in 100x20 mm2 cell culture plates and after 24h, fresh cell culture medium containing the compounds was added. After 24h, cells were detached with cell scrapers, harvested, and processed for qPCR or western blot.
(§3) Protein levels were analyzed as previously described. Cells were directly lysed in 1x Laemmli Buffer (Bio-Rad, USA), incubated at 95° C and centrifuged. Supernatant was subjected to SDS-polyacrylamide gel electrophoresis, and successive steps were performed as described. The list of antibodies used is included in Supplementary Table 2.
As for `C[N+](C)(C)CC(=O)O` [Betaine], the “SIRT1,2,6 H3K9ac” value is recorded as “-”.
The same measure, in the same setting: to `C/C=C/C(=O)C1=C(C)C=CCC1(C)C` [Damascenone] belongs “-”.
On to `O=C(OC[C@H]1OC(O)[C@@](O)(COC(=O)c2cc(O)c(O)c(O)c2)[C@@H]1O)c1cc(O)c(O)c(O)c1` (some centres unmarked) [Hamamelitannin], for which the “SIRT1,2,6 H3K9ac” value is on record as “-”.
The same measure, in the same setting: the same measure for `Cc1ncc(CO)c(CO)c1O` [Pyridoxine, reference compound]: “-”; for `NC(=S)N/N=C/c1ccccc1O` [Salicyladehyde thiosemicarbazone]: “-”; for `O=C(O)c1ccccc1O` [Salicylic acid, reference compound]: “-”.
On to `COc1cc(C(=O)O)cc(OC)c1O` [Syringic acid], for which the “SIRT1,2,6 H3K9ac” value was “-”.
Still for that read-out and setting: the same measure for `COc1cc(C=O)ccc1O` [Vanillin]: “-”.

For another data set, the system named is H4K16ac (the target of SIRT1 and SIRT2). As to the kind of experiment: Sirtuin activity assay in HDF: H4K16ac levels (Western blot). Further: key: ↑: increase; ↓: decrease; hyphens that indicate no effect (-). In kind it is cell-based, human. The following applies: HDF treated 24h, Figure 1B. As for the experimental part:
as §1, §2, §3
Consider `C[N+](C)(C)CC(=O)O` [Betaine], for which the “SIRT1,2 H4K16ac” value is “-”.
As for `C/C=C/C(=O)C1=C(C)C=CCC1(C)C` [Damascenone], the “SIRT1,2 H4K16ac” value is recorded as “-”.
Regarding `O=C(OC[C@H]1OC(O)[C@@](O)(COC(=O)c2cc(O)c(O)c(O)c2)[C@@H]1O)c1cc(O)c(O)c(O)c1` (some centres unmarked) [Hamamelitannin], the “SIRT1,2 H4K16ac” value is given as “-”.
On the same count and under the same terms, the same measure for `Cc1ncc(CO)c(CO)c1O` [Pyridoxine, reference compound]: “-”; for `NC(=S)N/N=C/c1ccccc1O` [Salicyladehyde thiosemicarbazone]: “-”.
Regarding `O=C(O)c1ccccc1O` [Salicylic acid, reference compound], the “SIRT1,2 H4K16ac” value is on record as “-”.
On the same count and under the same terms, to `COc1cc(C(=O)O)cc(OC)c1O` [Syringic acid] belongs “-”.
Consider `COc1cc(C=O)ccc1O` [Vanillin], for which the “SIRT1,2 H4K16ac” value is listed as “-”.

The next data set concerns primary human dermal fibroblasts (HDFs).
Test: not given
Details: not given
An excerpt:
In our efforts to identify novel factors that could prevent skin cell senescence, we developed a screening process to identify new modulators of the protective role of sirtuins in UV-induced senescence. For this purpose, we established a culture of primary human dermal fibroblasts (HDFs). […] Our first step in the screening was to establish the optimal concentrations of these compounds in the case of HDFs. […] Once established, we took these parameters into account to decide the specific working range of concentrations for each compound.
Human dermal fibroblasts (HDFs) (Promocell, Germany) from 40-year old Caucasian women were used as the in vitro model for compound viability and efficacy screening. Cells were cultured in Dulbecco's modified eagle medium (DMEM) low glucose (Biowest, France) supplemented with 10% fetal bovine serum (FBS) (Capricorn Scientific, Germany) and 10 U/mL penicillin/streptomycin (Biowest, France) in a humidified incubator at 37° C and 5% CO2. For cell passage, cells at 80% confluence were trypsinized and plated at 60% confluence. Cells between passage 13 and 18 were used for the assays. For the SIRT1 in vitro assay, HEK293 cells (ATCC, USA), used to transfect and immunoprecipitate SIRT1 protein, were grown in DMEM high glucose (Thermo Fisher Scientific, USA), supplemented with 10% FBS in a humidified incubator at 37° C and 5% CO2. The following experiments were all performed in triplicate.
(§4) The protocol for senescence induction using UVB irradiation is described in the Supplementary Methods. SA-β-Gal staining, WST-1, sulforhodamine B (SRB) and trypan blue assays were performed as previously described. For the siRNA experiments, the protocol for senescence induction using UVB irradiation was the same as in the Supplementary Methods. Specific siRNA (Horizon discovery, UK) for SIRT1, SIRT2, SIRT6, BiP or scramble siRNA were incubated for 6 hours before each irradiation step.
As for `C/C=C/C(=O)C1=C(C)C=CCC1(C)C` [Damascenone], the “Max. non-cyt. doses” value is on record as 0.05 mM.

Staying with this data set, now noted: HDFs, WST-1 cell viability test.
For `C[N+](C)(C)CC(=O)O` [Betaine], the “LD50” value was 507.81 mM.
For `C/C=C/C(=O)C1=C(C)C=CCC1(C)C` [Damascenone], the “LD50” value stood at 0.121 mM.
On the same count and under the same terms, to `O=C(OC[C@H]1OC(O)[C@@](O)(COC(=O)c2cc(O)c(O)c(O)c2)[C@@H]1O)c1cc(O)c(O)c(O)c1` (some centres unmarked) [Hamamelitannin] belongs 0.247 mM.
Still for that read-out and setting: the same measure for `NC(=S)N/N=C/c1ccccc1O` [Salicyladehyde thiosemicarbazone]: 4.175 mM.

The same data set, now with this note: HDFs, WST-1 cell viability test, maximum non-cytotoxic dose.
As to `C[N+](C)(C)CC(=O)O` [Betaine], the “Max. non-cyt. doses” value is listed as 50 mM.
In the case of `O=C(OC[C@H]1OC(O)[C@@](O)(COC(=O)c2cc(O)c(O)c(O)c2)[C@@H]1O)c1cc(O)c(O)c(O)c1` (some centres unmarked) [Hamamelitannin], the “Max. non-cyt. doses” value is given as 0.1 mM.
Still for that read-out and setting: the same measure for `NC(=S)N/N=C/c1ccccc1O` [Salicyladehyde thiosemicarbazone]: 0.5 mM; for `O=C(O)c1ccccc1O` [Salicylic acid, reference compound]: 1 mM.

The data set is the same for the next values; noted with them: female, human.
As for `Cc1ncc(CO)c(CO)c1O` [Pyridoxine, reference compound], the “LD50” value was determined as 16.92 mM and the “Max. non-cyt. doses” value amounted to 5 mM.
The like results for `COc1cc(C(=O)O)cc(OC)c1O` [Syringic acid] were, in that order, 3.65 mM and 1 mM.
The like results for `COc1cc(C=O)ccc1O` [Vanillin] were, in that order, 5.912 mM and 1 mM.

The test system of the next data set is UVB-irradiated human dermal fibroblasts (HDFs). The data set can be described thus: UVB-induced senescence assay: SA-β-Gal staining. Further: key: ↑: increase; ↓: decrease; hyphens that indicate no effect (-). Type of data set: cell-based. As to conditions: HDF, 2 cycles of UVB, compound day 1 to 7, Figure 2B. Here is the method:
(§5) In the second approach, we established a method for inducing senescence in these cells with 2 cycles of UVB irradiation 72h apart (Figure 2A). The use of UVA to induce senescence was discarded due to its considerably longer time requirement, being unsuitable to screen 30 compounds within a reasonable period. Cells were treated with these compounds throughout the duration of the assay and cellular senescence was monitored with two markers: accumulation of SA-β-galactosidase (SA-β-Gal) activity, and the decrease in expression of HAS2 (hyaluronic acid synthase 2), a previously reported marker of skin senescence.
(§6) Figure 2 (A) Schematic representation of the protocol for senescence induction using UVB irradiation. Cells were treated -/+ the compounds from day 1 to 7 after seeding, irradiated with UVB on days 2 and 5 and harvested for analysis on day 7. […] (C) Phase-contrast (left column) and bright field (right column) microscope images of SA-β-Gal staining showing non-irradiated cells, UVB-irradiated cells non-treated and treated with Gallic acid or Shikimic acid at the indicated concentrations. (D) Percentage of SA-β-Gal positive cells and (E) Relative HAS2 mRNA levels in non-irradiated cells, UVB-irradiated cells and UVB-irradiated cells treated with Gallic acid or Shikimic acid at the indicated concentrations. Student T-test, *p<0.05, **p<0.01, ***p<0.001.
as §4
(§7) Senescence induction by UVB irradiation For the non-irradiation control conditions, HDF were […]
(§8) After 24h, culture medium was removed and well plates. After 24h, culture medium was removed replaced by fresh cell culture medium containing the and replaced with fresh cell culture medium containing compounds at different concentrations. After 24h, the compounds at different concentrations. […]
(§9) cell culture medium was removed, and cells were cells/plate in fresh cell culture medium containing the irradiated at 25 mJ/cm2 of UVB light (312 nm) in a Bio- compound in 6-well plates. After 3 days, cells were […]
(§10) amount of PBS. PBS was then removed and fresh cell fresh cell culture medium containing the compound in culture medium with the compound was added to each 6-well plates. After 2 days, cells were processed well. After 3 days, cells were irradiated again under the according to the qPCR, β-Gal staining, apoptosis, cell same conditions. After 2 days, cells were processed cycle or immunofluorescence protocols. according to the qPCR, β-Gal staining, apoptosis, cell cycle or immunofluorescence protocols.
With `C[N+](C)(C)CC(=O)O` [Betaine], the β-Gal entry is recorded as “-”.
Same read-out and setting: the same measure for `C/C=C/C(=O)C1=C(C)C=CCC1(C)C` [Damascenone]: “-”.
On the same count and under the same terms, to `O=C(OC[C@H]1OC(O)[C@@](O)(COC(=O)c2cc(O)c(O)c(O)c2)[C@@H]1O)c1cc(O)c(O)c(O)c1` (some centres unmarked) [Hamamelitannin] belongs “-”; to `Cc1ncc(CO)c(CO)c1O` [Pyridoxine, reference compound], “-”; to `NC(=S)N/N=C/c1ccccc1O` [Salicyladehyde thiosemicarbazone], “-”.
Consider `O=C(O)c1ccccc1O` [Salicylic acid, reference compound], for which the β-Gal entry is given as “-”.
Still for that read-out and setting: to `COc1cc(C(=O)O)cc(OC)c1O` [Syringic acid] belongs “-”.
Regarding `COc1cc(C=O)ccc1O` [Vanillin], the β-Gal entry is listed as “-”.

The test system of a further data set is HAS2 (hyaluronic acid synthase 2). As to the kind of experiment: UVB-induced senescence assay: HAS2 gene expression (qPCR). Further: key: ↑: increase; ↓: decrease; hyphens that indicate no effect (-). In kind it is cell-based, human. The following applies: HDF, 2 cycles of UVB, compound day 1 to 7, Figure 2B. As for the experimental part:
as §5, §6
RNA was extracted from cell pellets using the Total RNA Purification Kit (Norgen, Canada), according to the manufacturer’s protocol. Extracted RNA was quantified using a NanoDrop® ND-1000 UV-Vis Spectrophotometer (Thermo Fisher Scientific, USA) and 300 ng of RNA were retrotranscribed to cDNA using the PrimeScriptTM RT reagent kit (Takara Bio Inc., Japan). cDNA was diluted 1/10 in ultrapure water and qPCR mix was prepared by adding cDNA (12 ng), SYBR green supermix (Bio Rad, USA), forward and reverse primers (0.2μM). The primers and their respective sequences are listed in Supplementary Table 1. qPCR protocol included one step at 95° C for 30 s, 40 cycles at 95° C for 10s, and 60° C for 1min. The results were analyzed with Bio-Rad CFX Manager software. BACT was used as a housekeeping gene to normalize gene expression.
as §7, §8, §9, §10
For the molecule `C[N+](C)(C)CC(=O)O` [Betaine], the HAS2 expression entry is given as “-”.
Same read-out and setting: to `C/C=C/C(=O)C1=C(C)C=CCC1(C)C` [Damascenone] belongs “-”; to `O=C(OC[C@H]1OC(O)[C@@](O)(COC(=O)c2cc(O)c(O)c(O)c2)[C@@H]1O)c1cc(O)c(O)c(O)c1` (some centres unmarked) [Hamamelitannin], “-”.
As to `Cc1ncc(CO)c(CO)c1O` [Pyridoxine, reference compound], the HAS2 expression result is given as “-”.
On the same count and under the same terms, the same measure for `NC(=S)N/N=C/c1ccccc1O` [Salicyladehyde thiosemicarbazone]: “-”; for `O=C(O)c1ccccc1O` [Salicylic acid, reference compound]: “-”; for `COc1cc(C(=O)O)cc(OC)c1O` [Syringic acid]: “-”.
Turning to `COc1cc(C=O)ccc1O` [Vanillin], the HAS2 expression entry is on record as “-”.
